What all share (type): biochemical
Assay [1] addresses GGTase I (substrate RhoA) (Homo sapiens, UniProt P49354+P53609). As to the kind of experiment: GGTase I filter-binding assay with RhoA as substrate. As to conditions: for activity at 50 µM: read-out: % activity of GGTase I for protein RhoA in the presence of the compound; for pIC50: FIG. 15, read-out: IC50 for the inhibition of GGTase I using RhoA as a substrate. As for the experimental part: (§1) The pilot library was screened for inhibitors of protein geranylgeranyltransferase type I. Protein prenyltransferase assays were carried out by using filter binding. Two different substrates, RhoA and K-Ras4B, were used for the assay. RhoA ends with the CaaL motif and is an exclusive substrate for GGTase I, while K-Ras4B ends with the CaaX motif and is modified by both GGTase I and FTase.
(§2) The % activity of GGTase I was determined as follows: a working solution that contained each compound in DMSO at the concentration of 1 mM was prepared. The working solution was added to GGTase I reaction mixture so that the final concentration of the compound is 50 μM. GGTase I activity was assayed by incubating [^3H]GGPP with K-Ras4B or RhoA protein in the presence of GGTase I and examining radioactivity incorporated into the substrate protein by spotting onto a filter paper. After washing with TCA, ethanol and acetone, the radioactivity retained on the filter was determined by the use of a scintillation counter. GGTase I activity in the presence of DMSO was taken as a 100% value and the activity in the presence of the compound was shown as percent activity compared with the 100% value. […] For 6-aryl-4-mercapto-N-sulfonyl-piperidine-3-carboxylic acid 11 the 4-mercapto substituent appeared critical to endowing GGTase inhibitory activity. […] 4-Chlorobenzylthio substituent was the next best; 12 compounds out of 21 containing the 4-chlorobenzylthio moiety were active. 4-Benzylthio substituent was also good; 7 piperidines out of 21 bearing 4-benzylthio group were active. […] 19 imines (C15>C12=C41>C40>C01=C11>C05=C10=C30=C35=C37=C38>C02, C03, C04, C06, C39=C43) out of 21 appeared in the GGTIs. […] This corresponds to 47 6-aryl-4-mercapto-N-sulfonyl-piperidine-3-carboxylic acids out of 357 compounds.
(§3) A collection of 138 heterocycles was screened for their ability to inhibit the activity of human GGTase-I to geranylgeranylate K-Ras4B or RhoA. Purified GGTase-1 was incubated with its substrate protein K-Ras4B or RhoA, [^3H]GGPP, and the 138 compounds. After 30 min, the degree of incorporation of tritiated geranylgeranyl groups was measured using a scintillation counter.
The GGTase-I assay was carried out using RhoA as a substrate protein, GGTase-I (JENA Bioscience) and [3H]geranylgeranyl pyrophosphate. Incubation was for 30 min at 37 C. GGTase-H (or RabGGTase) assay was carried out using YPT1 as a substrate protein, GGTase-H (Calbiochem, San Diego, Calif.) plus REP1 (Calbiochem) and [3H]geranylgeranyl pyrophosphate. Incubation was for 30 min at 37 C. FIGS. 20D-20F show the three dimensional structure of GGTase I (D), FTsse (E) and GGTase II (F) which can be obtained from X-ray diffraction studies of protein crystals.

Assay [2] concerns the target GGTase I (substrate K-Ras4B) (Homo sapiens, UniProt P49354+P53609). As to the kind of experiment: GGTase I filter-binding assay with K-Ras4B as substrate. The following applies: read-out: % activity of GGTase I for protein K-Ras4B in the presence of the compound. Here is the method: as §1, §2, §3
Assay [3] deals with GGTase I (Homo sapiens, UniProt P49354+P53609). As to the kind of experiment: GGTase I assay, substrate not specified or K-Ras4B and RhoA compared. As to conditions: for inhibition of GGTase I: FIG. 16; for substrate preference of GGTase I inhibition (RhoA vs K-Ras4B), known GGTIs: FIG. 17; for GGTI activity in screen of 138 heterocycles: K-Ras4B or RhoA substrate, 30 min. Here is the method: as §1, §2, §3

The target in assay [4] is T1, protein farnesyltransferase (FTase) (Rattus norvegicus, UniProt Q02293+Q04631).
T1 construct: purchased JENA Bioscience
As to the kind of experiment: Protein farnesyltransferase assay with K-Ras4B and [3H]FPP. The following applies: FIG. 16; concentration increased to 100 μM. The text has this: To further characterize the pilot library, inhibitors of protein farnesyltransferase were identified. This was accomplished by using K-Ras4B as a substrate protein, tritiated farnesylpyrophosphate ([^3H]FPP) and protein farnesyltransferase. See Finegold, A. A., Johnson, D. I., Farnsworth, C. C., Gelb, M. H., Judd, S. R., Glomset, J. A. and Tamanoi, F. (1991) Protein geranylgeranyltransferase of Saccharomyces cerevisiae is specific for Cys-Xaa-Xaa-Leu motif and requires the CDC43 gene product but not the DPRI gene product. Proc. Natl. Acad. Sci. USA 88, 4448-4452. […] On the other hand, the structure of the compounds P1-F11, P2-B7 and P2-E9 resemble those of GGTIs. The FTI P1-F11 resembles the GGTI P1-F10, while the FTI P2-B7 resembles the GGTI P2-C10. The FTI P2-E9 is similar to the GGTI P2-G3. Similarity of some GGTI and FTI compounds may point to common structural features between the two closely related enzymes. As described before, FTase and GGTase I have similar three-dimensional structures and a shared alpha subunit. On the other hand, FTase specific inhibitors may recognize a region(s) that is different between the two enzymes.
Varying concentrations of the two compounds were added to each enzyme reaction. The FTase (protein farnesyltransferase) assay was carried out using K-Ras4B as a substrate protein, FTase (JENA Bioscience, San Diego, Calif.) and […] pyrophosphate. Incubation was for 30 min at 37 C.

The mark [5] stands for this setting: 50 μM compound, DMSO = 100%, smaller numbers indicate better inhibition, second number of pair.
Setting [6] is: 50 μM compound, DMSO = 100%, smaller numbers indicate better inhibition, first number of pair.

SMILES strings stand for the structures. pIC50: −log10 of the molar value. Like-named read-outs stand apart in the source and are kept apart here.

`Cc1ccc(S(=O)(=O)N2[C@@H](c3cccc(F)c3)C(C(=O)O)=C[C@H]2C(C)(C)C)cc1`: the activity at 50 µM came to 9.1% in assay [1] and 23.7% in assay [2].

For the molecule `Cc1ccccc1S(=O)(=O)N1[C@@H](c2ccc(Cl)cc2)C(C(=O)O)=C[C@H]1CC1CCCC1`, the values for the activity at 50 µM in assay [1] and in assay [2] were 9.1% and 23.7%, respectively.

In the case of `Cc1ccc(S(=O)(=O)N2C(c3ccc(Cl)c(Cl)c3)CC=C(C(=O)O)[C@@H]2c2cccc(Br)c2)cc1` (stereo partly drawn), the activity at 50 µM in assay [1] is 3.2%; in assay [2] it was 8.6%.

In the case of `Cc1ccc(S(=O)(=O)N2C(c3ccc(Cl)c(Cl)c3)CC=C(C(=O)O)[C@@H]2c2cccc(Cl)c2)cc1` (stereo partly drawn), the activity at 50 µM is 4.5% in assay [1] and 10.7% in assay [2].

With `Cc1ccccc1S(=O)(=O)N1C(c2ccc(Cl)cc2)CC=C(C(=O)O)[C@@H]1c1ccccc1` (stereo partly drawn), the activity at 50 µM in assay [1] is 5.8%; in assay [2], 13.4%.

Regarding `Cc1ccc(S(=O)(=O)N2C(c3ccc(Cl)c(Cl)c3)CC=C(C(=O)O)[C@@H]2c2ccc(Br)cc2)cc1` (stereo partly drawn), the activity at 50 µM was found to be 11.3% in assay [1] and 18.7% in assay [2].

For the molecule `C=CCS[C@H]1[C@@H](C(=O)O)[C@H](c2cccc(F)c2)N(S(=O)(=O)c2ccc(C)cc2)[C@@H]1CC1CCCC1`, the results for the activity at 50 µM in assay [1] (setting [5]) and in assay [2] (setting [6]) were 9.7% and 30.4%, respectively.

As for `CCC[C@@H]1[C@@H](SCCC(=O)OC(C)(C)C)[C@@H](C(=O)O)[C@H](c2cccc(F)c2)N1S(=O)(=O)c1ccc(C)cc1`, the activity at 50 µM is 7.8% in assay [1] (setting [5]) and 20.2% in assay [2] (setting [6]).

As for `CCCC[C@@H]1[C@@H](Sc2ccc(OC)cc2)[C@@H](C(=O)O)[C@H](c2cccc(F)c2)N1S(=O)(=O)c1ccc(C)cc1`, the activity at 50 µM came out at 3.5% in assay [1] (setting [5]) and 27.4% in assay [2] (setting [6]).

For the molecule `Cc1ccc(S(=O)(=O)N2[C@H](CC3CCCC3)[C@@H](SCCC(=O)OC(C)(C)C)[C@@H](C(=O)O)[C@@H]2c2cccc(F)c2)cc1`, the figures for the activity at 50 µM in assay [1] (setting [5]) and in assay [2] (setting [6]) were 8.2% and 31.9%, respectively.

As to `C=CCS[C@H]1[C@@H](C(=O)O)[C@H](c2ccc(OC)c(OC)c2)N(S(=O)(=O)c2ccc(C)cc2)[C@@H]1CCCCCC`, the activity at 50 µM turned out to be 8.1% in assay [1] (setting [5]) and 22.3% in assay [2] (setting [6]).

Regarding `C=CCS[C@H]1[C@@H](C(=O)O)[C@H](c2ccc(Cl)cc2)N(S(=O)(=O)c2ccc(C)cc2)[C@@H]1CC1CCCC1`, the figures for the activity at 50 µM in assay [1] (setting [5]) and in assay [2] (setting [6]) were 7.7% and 25.2%, respectively.

With `C=CCS[C@H]1[C@@H](C(=O)O)[C@H](c2ccc(C(C)C)cc2)N(S(=O)(=O)c2ccc(C)cc2)[C@@H]1CC1CCCC1`, the figures for the activity at 50 µM in assay [1] (setting [5]) and in assay [2] (setting [6]) were 6.1% and 31.7%, respectively.

Take `CCC[C@@H]1[C@@H](Sc2ccc(C)cc2)[C@@H](C(=O)O)[C@H](c2cccc(F)c2)N1S(=O)(=O)c1ccc(C)cc1`: the activity at 50 µM amounted to 4.1% in assay [1] (setting [5]) and 14.7% in assay [2] (setting [6]).

As to `CCCCCS[C@H]1[C@@H](C(=O)O)[C@H](c2cccc(F)c2)N(S(=O)(=O)c2ccc(C)cc2)[C@@H]1CCCC`, the activity at 50 µM in assay [1] (setting [5]) amounted to 7.1%; in assay [2] (setting [6]) it was 23.5%.

As for `CCCC[C@@H]1[C@@H](Sc2ccc(C)cc2)[C@@H](C(=O)O)[C@H](c2cccc(F)c2)N1S(=O)(=O)c1ccc(C)cc1`, the activity at 50 µM was 7.1% in assay [1] (setting [5]) and 31.5% in assay [2] (setting [6]).

On to `CCCCCC[C@@H]1[C@@H](Sc2ccc(C)cc2)[C@@H](C(=O)O)[C@H](c2ccc(Cl)c(Cl)c2)N1S(=O)(=O)c1ccc(C)cc1`, for which the activity at 50 µM in assay [1] (setting [5]) stood at 9.2%; in assay [2] (setting [6]) it was 21.3%.

Regarding `CCCCCC[C@@H]1[C@@H](Sc2ccc(C)cc2)[C@@H](C(=O)O)[C@H](c2ccc(Cl)cc2)N1S(=O)(=O)c1ccccc1`, the activity at 50 µM amounted to 7.5% in assay [1] (setting [5]) and 15% in assay [2] (setting [6]).

For the molecule `CC(C)CCS[C@H]1[C@@H](C(=O)O)[C@H](c2ccc(Cl)cc2)N(S(=O)(=O)c2ccccc2)[C@@H]1C(C)C`, the activity at 50 µM in assay [1] (setting [5]) stood at 5.9%; in assay [2] (setting [6]) it was 28.1%.

On to `CCCCCC[C@@H]1[C@@H](SC2CCCC2)[C@@H](C(=O)O)[C@H](c2ccc(C#N)cc2)N1S(=O)(=O)c1ccc(C)cc1`, for which the figures for the activity at 50 µM in assay [1] (setting [5]) and in assay [2] (setting [6]) were 7.4% and 20.1%, respectively.

Regarding `Cn1cncc1CN1C[C@@H](Cc2ccccc2)N(S(=O)(=O)c2cccs2)Cc2cc(C#N)ccc21` [BMS225975, reference compound], the “inhibition of GGTase I” value in assay [3] is “does not inhibit GGTase I”. The “inhibition of FTase activity” value in assay [4] is “inhibits FTase”.

Regarding `COC(=O)[C@H](CC(C)C)NC(=O)c1ccc(NC[C@@H](N)CS)cc1-c1cccc2ccccc12` [GGTI-298, reference compound], the pIC50 in assay [1] was 5.80. Also, in assay [3], the “inhibition of GGTase I” value is given as “inhibits GGTase I” and the “substrate preference of GGTase I inhibition (RhoA vs K-Ras4B), known GGTIs” value is “inhibit RhoA-driven GGTase I activity slightly better than K-Ras4B-driven GGTase I activity”. Further, in assay [4], the “inhibition of FTase activity” value was “little inhibition was observed with FTase”.

On to `COC(=O)C(CC(C)C)NC(=O)c1ccc(NCc2cnc[nH]2)cc1-c1ccccc1C` (stereo not drawn) [GGTI-2166, reference compound], for which the pIC50 in assay [1] was 6.30. Moreover, the “substrate preference of GGTase I inhibition (RhoA vs K-Ras4B), known GGTIs” value in assay [3] was “inhibit RhoA-driven GGTase I activity slightly better than K-Ras4B-driven GGTase I activity”.

Turning to `O=C(O)C1=CCC(c2ccc(Cl)cc2)N(S(=O)(=O)c2ccc(Cl)cc2)[C@H]1c1cccc(Cl)c1` (stereo partly drawn) [P3-D9], the activity at 50 µM was determined as 26.7% in assay [1] (setting [5]) and 33.1% in assay [2] (setting [6]). Besides, in assay [1], the pIC50 is 5.30. Moreover, in assay [4], the “inhibition of FTase activity” value was “no inhibition of FTase activity was observed”.

With `CC[C@@H]1C=C(C(=O)O)[C@H](c2ccc(F)cc2)N1S(=O)(=O)c1ccc(C)cc1` [compound 1], in assay [3], the “GGTI activity in screen of 138 heterocycles” value is “identified as GGTIs”.

Take `Cc1ccc(S(=O)(=O)N2[C@@H](c3ccccc3)C(C(=O)O)=CC[C@H]2c2ccc(F)cc2)cc1` [compound 2]: in assay [3], the “GGTI activity in screen of 138 heterocycles” value is reported as “identified as GGTIs”.

For the origin of these results see patent publication US8093274B2, “Inhibitors of protein prenyltransferases” (The Regents of the University of California, priority 2006, dated 2012).
